Assay results published in ChEMBL document CHEMBL4373740, “Synthesis and biological evaluation of new MET inhibitors with 1,6-naphthyridinone scaffold” (Eur J Med Chem, 2020).

How the values were obtained:
[1] = biological target: Hepatocyte growth factor receptor (Homo sapiens, UniProt P08581); assay: Inhibition of purified recombinant MET kinase domain (unknown origin) using biotin as substrate preincubated for 5 mins followed by substrate addition and measured after 30 to 60 mins in presence of ATP by HTRF assay
[2] = biological target: Vascular endothelial growth factor receptor 2 (Homo sapiens, UniProt P35968); assay: Inhibition of purified recombinant VEGFR2 kinase domain (unknown origin) using biotin as substrate preincubated for 5 mins followed by substrate addition and measured after 30 to 60 mins in presence of ATP by HTRF assay
[3] = biological target: Tyrosine-protein kinase receptor UFO (Homo sapiens, UniProt P30530); assay: Inhibition of recombinant […] human N-terminal GST-tagged AXL (473 to end residues) expressed in baculovirus infected Sf21 insect cells using biotin as substrate preincubated for 5 mins followed by substrate addition and measured after 30 to 60 mins in presence of ATP by HTRF assay
[4] = Half life in Sprague-Dawley rat at 5.0 mg/kg, ig measured for 15 min to 72 hrs by LC-MS/MS analysis; assay type: ADME, organism-based; conditions: in vivo, po
[5] = Tmax in Sprague-Dawley rat at 5.0 mg/kg, ig measured for 15 min to 72 hrs by LC-MS/MS analysis; assay type: ADME, organism-based; conditions: in vivo, po
[6] = Cmax in Sprague-Dawley rat at 5.0 mg/kg, ig measured for 15 min to 72 hrs by LC-MS/MS analysis; assay type: ADME, organism-based; parameters: dose 5 mg/kg, route intragastric; conditions: in vivo, po
[7] = AUC (0 to infinity) in Sprague-Dawley rat at 1.0 mg/kg, iv measured for 5 min to 72 hrs by LC-MS/MS analysis; assay type: ADME, organism-based; parameters: dose 1 mg/kg, time infinity, route intravenous; conditions: in vivo
[8] = Clearance in Sprague-Dawley rat at 5.0 mg/kg, ig measured for 15 min to 72 hrs by LC-MS/MS analysis; assay type: ADME, organism-based; conditions: in vivo, po
[9] = Mean residence time in Sprague-Dawley rat at 1.0 mg/kg, iv measured for 5 min to 72 hrs by LC-MS/MS analysis; assay type: ADME, organism-based; conditions: in vivo
[10] = biological target: Tyrosine-protein kinase Fgr (Homo sapiens) (UniProt P09769); assay: Inhibition of recombinant full length human His-tagged FGR expressed in baculovirus expression system at 1 uM using biotin as substrate preincubated for 5 mins followed by substrate addition and measured after 30 to 60 mins in presence of ATP by HTRF assay relative to control
[11] = biological target: Tyrosine-protein kinase Mer (Homo sapiens) (UniProt Q12866); assay: Inhibition of recombinant human GST-tagged cMER (578 to 872 residues) expressed in baculovirus infected Sf21 insect cells at 1 uM using biotin as substrate preincubated for 5 mins followed by substrate addition and measured after 30 to 60 mins in presence of ATP by HTRF assay relative to control
[12] = biological target: Tyrosine-protein kinase Lck (Homo sapiens) (UniProt P06239); assay: Inhibition of recombinant full length human His-tagged LCK expressed in baculovirus expression system at 1 uM using biotin as substrate preincubated for 5 mins followed by substrate addition and measured after 30 to 60 mins in presence of ATP by HTRF assay relative to control
[13] = biological target: Tyrosine-protein kinase ABL1 (Homo sapiens) (UniProt P00519); assay: Inhibition of recombinant full length human His-tagged ABL1 expressed in baculovirus expression system at 1 uM using biotin as substrate preincubated for 5 mins followed by substrate addition and measured after 30 to 60 mins in presence of ATP by HTRF assay relative to control
[14] = biological target: CDK2/Cyclin A2 (Homo sapiens) (UniProt P24941+P20248); assay: Inhibition of recombinant full length human His-tagged CDK2/Cyclin A expressed in baculovirus expression system at 1 uM using biotin as substrate preincubated for 5 mins followed by substrate addition and measured after 30 to 60 mins in presence of ATP by HTRF assay relative to control
[15] = biological target: Epidermal growth factor receptor (Homo sapiens) (UniProt P00533); assay: (§1) Inhibition of recombinant human GST-tagged EGFR (668 to 1210 residues) expressed in baculovirus expression system at 1 uM using biotin as substrate preincubated for 5 mins followed by substrate addition and measured after 30 to 60 mins in presence of ATP by HTRF assay relative to control
[16] = biological target: Glycogen synthase kinase-3 beta (Homo sapiens) (UniProt P49841); assay: Inhibition of GSK3beta (unknown origin) at 1 uM using biotin as substrate preincubated for 5 mins followed by substrate addition and measured after 30 to 60 mins in presence of ATP by HTRF assay relative to control
[17] = biological target: Insulin-like growth factor 1 receptor (Homo sapiens) (UniProt P08069); assay: Inhibition of recombinant full length human His-tagged IGF1R expressed in baculovirus expression system at 1 uM using biotin as substrate preincubated for 5 mins followed by substrate addition and measured after 30 to 60 mins in presence of ATP by HTRF assay relative to control
[18] = biological target: Tyrosine-protein kinase JAK1 (Homo sapiens) (UniProt P23458); assay: Inhibition of recombinant full length human GST-tagged JAK1 expressed in baculovirus expression system at 1 uM using biotin as substrate preincubated for 5 mins followed by substrate addition and measured after 30 to 60 mins in presence of ATP by HTRF assay relative to control
[19] = biological target: Tyrosine-protein kinase Lyn (Homo sapiens) (UniProt P07948); assay: Inhibition of recombinant human N-terminal GST-tagged LYN A expressed in insect cells at 1 uM using biotin as substrate preincubated for 5 mins followed by substrate addition and measured after 30 to 60 mins in presence of ATP by HTRF assay relative to control
[20] = biological target: Tyrosine-protein kinase Lyn (Homo sapiens) (UniProt P07948); assay: Inhibition of recombinant full length human GST-tagged LYN B expressed in baculovirus expression system at 1 uM using biotin as substrate preincubated for 5 mins followed by substrate addition and measured after 30 to 60 mins in presence of ATP by HTRF assay relative to control
[21] = biological target: Proto-oncogene tyrosine-protein kinase receptor Ret (Homo sapiens) (UniProt P07949); assay: Inhibition of recombinant human GST/His6-tagged RET (658 to 1114 residues) expressed in baculovirus infected Sf9 insect cells at 1 uM using biotin as substrate preincubated for 5 mins followed by substrate addition and measured after 30 to 60 mins in presence of ATP by HTRF assay relative to control
[22] = biological target: Proto-oncogene tyrosine-protein kinase ROS (Homo sapiens) (UniProt P08922); assay: as §1, with “ROS1 catalytic domain (1883” for “EGFR (668”, “2347” for “1210”
[23] = biological target: Proto-oncogene tyrosine-protein kinase Src (Homo sapiens) (UniProt P12931); assay: Inhibition of recombinant full length human untagged SRC expressed in baculovirus expression system at 1 uM using biotin as substrate preincubated for 5 mins followed by substrate addition and measured after 30 to 60 mins in presence of ATP by HTRF assay relative to control
[24] = biological target: Serine/threonine-protein kinase TBK1 (Homo sapiens) (UniProt Q9UHD2); assay: Inhibition of recombinant full length human GST-tagged TBK1 expressed in insect cells at 1 uM using biotin as substrate preincubated for 5 mins followed by substrate addition and measured after 30 to 60 mins in presence of ATP by HTRF assay relative to control

Chain of Tyrosine-protein kinase Lyn (Homo sapiens) (P07948 2-512 limits assumed): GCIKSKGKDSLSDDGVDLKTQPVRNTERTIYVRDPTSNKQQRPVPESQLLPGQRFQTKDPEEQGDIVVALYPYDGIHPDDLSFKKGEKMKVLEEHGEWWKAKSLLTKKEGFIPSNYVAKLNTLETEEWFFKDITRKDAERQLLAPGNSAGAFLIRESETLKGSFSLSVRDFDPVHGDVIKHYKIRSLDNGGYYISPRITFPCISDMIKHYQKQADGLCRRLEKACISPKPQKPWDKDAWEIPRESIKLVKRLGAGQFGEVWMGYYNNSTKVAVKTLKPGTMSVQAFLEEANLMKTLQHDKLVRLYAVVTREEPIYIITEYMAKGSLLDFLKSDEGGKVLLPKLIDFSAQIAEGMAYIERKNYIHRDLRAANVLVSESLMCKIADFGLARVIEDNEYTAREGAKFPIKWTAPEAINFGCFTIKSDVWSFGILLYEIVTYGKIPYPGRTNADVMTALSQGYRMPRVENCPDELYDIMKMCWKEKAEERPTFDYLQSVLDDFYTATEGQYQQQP
Chain of Glycogen synthase kinase-3 beta (Homo sapiens) (P49841 whole entry, looked up): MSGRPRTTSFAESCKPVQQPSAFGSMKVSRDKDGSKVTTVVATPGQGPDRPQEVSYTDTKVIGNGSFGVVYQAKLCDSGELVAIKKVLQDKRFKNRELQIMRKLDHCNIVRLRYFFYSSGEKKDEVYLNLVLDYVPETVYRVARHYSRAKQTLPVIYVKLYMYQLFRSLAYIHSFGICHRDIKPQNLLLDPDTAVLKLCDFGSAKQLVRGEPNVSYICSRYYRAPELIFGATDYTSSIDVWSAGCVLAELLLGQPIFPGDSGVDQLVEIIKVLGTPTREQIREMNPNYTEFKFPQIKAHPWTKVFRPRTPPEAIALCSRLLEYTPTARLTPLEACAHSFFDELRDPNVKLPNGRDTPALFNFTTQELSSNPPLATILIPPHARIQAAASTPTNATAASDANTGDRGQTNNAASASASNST
Chain of Tyrosine-protein kinase JAK1 (Homo sapiens) (P23458 whole entry): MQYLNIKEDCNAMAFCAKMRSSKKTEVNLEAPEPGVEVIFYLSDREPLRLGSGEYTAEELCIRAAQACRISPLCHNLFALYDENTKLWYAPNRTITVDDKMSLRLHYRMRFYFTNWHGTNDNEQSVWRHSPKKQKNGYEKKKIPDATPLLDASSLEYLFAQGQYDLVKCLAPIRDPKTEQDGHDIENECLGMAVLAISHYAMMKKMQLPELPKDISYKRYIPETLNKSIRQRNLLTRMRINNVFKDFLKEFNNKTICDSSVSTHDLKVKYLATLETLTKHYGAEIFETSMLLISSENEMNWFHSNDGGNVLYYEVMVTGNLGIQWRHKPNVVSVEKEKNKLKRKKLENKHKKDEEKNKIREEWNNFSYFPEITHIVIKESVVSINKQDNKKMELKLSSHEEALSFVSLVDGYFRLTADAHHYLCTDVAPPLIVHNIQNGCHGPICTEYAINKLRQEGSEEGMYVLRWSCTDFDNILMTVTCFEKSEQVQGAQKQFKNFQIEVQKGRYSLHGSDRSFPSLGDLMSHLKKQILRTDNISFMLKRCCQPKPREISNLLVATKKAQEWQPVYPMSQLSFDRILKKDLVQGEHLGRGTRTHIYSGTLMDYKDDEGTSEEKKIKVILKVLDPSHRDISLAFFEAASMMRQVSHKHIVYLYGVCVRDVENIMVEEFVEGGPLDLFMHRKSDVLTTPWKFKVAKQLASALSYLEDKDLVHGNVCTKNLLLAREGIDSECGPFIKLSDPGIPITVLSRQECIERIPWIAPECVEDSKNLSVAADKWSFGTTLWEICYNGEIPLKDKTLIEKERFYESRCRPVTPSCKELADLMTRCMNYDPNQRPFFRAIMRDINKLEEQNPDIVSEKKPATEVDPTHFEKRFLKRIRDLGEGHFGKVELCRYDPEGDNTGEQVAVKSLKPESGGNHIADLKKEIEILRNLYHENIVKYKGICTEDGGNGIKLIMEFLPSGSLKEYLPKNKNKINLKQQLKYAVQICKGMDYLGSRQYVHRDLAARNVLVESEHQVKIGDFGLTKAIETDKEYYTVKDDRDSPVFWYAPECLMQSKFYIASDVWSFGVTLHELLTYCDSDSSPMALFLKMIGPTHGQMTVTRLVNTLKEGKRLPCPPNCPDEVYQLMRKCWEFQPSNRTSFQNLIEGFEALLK
Chain of Proto-oncogene tyrosine-protein kinase receptor Ret (Homo sapiens) (P07949 whole entry, the tested form may be a part): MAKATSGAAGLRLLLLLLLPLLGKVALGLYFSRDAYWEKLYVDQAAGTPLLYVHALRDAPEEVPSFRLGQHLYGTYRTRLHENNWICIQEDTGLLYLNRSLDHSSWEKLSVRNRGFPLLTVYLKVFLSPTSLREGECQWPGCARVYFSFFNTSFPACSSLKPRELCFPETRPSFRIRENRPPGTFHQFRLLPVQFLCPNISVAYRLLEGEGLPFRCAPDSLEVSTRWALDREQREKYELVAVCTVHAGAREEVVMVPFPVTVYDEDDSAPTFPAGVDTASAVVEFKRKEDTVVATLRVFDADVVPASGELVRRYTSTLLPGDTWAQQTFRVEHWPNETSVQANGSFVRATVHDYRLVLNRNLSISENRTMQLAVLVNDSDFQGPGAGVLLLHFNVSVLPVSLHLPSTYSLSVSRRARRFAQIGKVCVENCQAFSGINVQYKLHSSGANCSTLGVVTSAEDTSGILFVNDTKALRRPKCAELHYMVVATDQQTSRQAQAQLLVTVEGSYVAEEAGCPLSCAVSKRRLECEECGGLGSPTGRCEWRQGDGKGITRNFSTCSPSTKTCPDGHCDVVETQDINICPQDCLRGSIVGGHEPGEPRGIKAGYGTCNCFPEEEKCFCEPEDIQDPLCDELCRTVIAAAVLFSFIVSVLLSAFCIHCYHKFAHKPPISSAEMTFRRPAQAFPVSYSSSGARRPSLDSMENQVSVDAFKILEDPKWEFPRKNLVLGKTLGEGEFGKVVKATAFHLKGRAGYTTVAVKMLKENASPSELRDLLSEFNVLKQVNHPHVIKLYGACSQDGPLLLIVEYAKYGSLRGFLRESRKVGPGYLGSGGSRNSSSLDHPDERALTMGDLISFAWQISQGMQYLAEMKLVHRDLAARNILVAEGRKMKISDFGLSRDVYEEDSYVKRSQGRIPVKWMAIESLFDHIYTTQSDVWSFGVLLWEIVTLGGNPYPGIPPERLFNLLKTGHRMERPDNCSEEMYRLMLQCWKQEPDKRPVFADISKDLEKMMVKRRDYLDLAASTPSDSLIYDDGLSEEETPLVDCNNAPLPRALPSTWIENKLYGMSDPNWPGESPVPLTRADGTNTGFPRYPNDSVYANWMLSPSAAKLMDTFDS
Chain of Tyrosine-protein kinase Lck (Homo sapiens) (P06239 2-509 limits assumed): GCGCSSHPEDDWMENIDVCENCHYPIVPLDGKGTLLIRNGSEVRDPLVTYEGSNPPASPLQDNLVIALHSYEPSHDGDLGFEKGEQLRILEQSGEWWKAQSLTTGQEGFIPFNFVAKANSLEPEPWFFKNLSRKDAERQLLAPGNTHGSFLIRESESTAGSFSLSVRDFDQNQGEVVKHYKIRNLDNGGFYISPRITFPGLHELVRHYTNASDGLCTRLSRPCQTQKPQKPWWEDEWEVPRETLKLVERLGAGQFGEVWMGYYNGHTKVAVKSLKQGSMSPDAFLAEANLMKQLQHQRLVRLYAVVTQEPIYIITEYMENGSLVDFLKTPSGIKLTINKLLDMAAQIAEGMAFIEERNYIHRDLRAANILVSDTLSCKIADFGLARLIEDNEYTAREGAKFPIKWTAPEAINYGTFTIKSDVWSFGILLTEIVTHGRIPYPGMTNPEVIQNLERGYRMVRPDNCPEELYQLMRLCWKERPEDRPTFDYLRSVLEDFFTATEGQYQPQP
Chain of Hepatocyte growth factor receptor (P08581 whole entry, the tested form may be a part): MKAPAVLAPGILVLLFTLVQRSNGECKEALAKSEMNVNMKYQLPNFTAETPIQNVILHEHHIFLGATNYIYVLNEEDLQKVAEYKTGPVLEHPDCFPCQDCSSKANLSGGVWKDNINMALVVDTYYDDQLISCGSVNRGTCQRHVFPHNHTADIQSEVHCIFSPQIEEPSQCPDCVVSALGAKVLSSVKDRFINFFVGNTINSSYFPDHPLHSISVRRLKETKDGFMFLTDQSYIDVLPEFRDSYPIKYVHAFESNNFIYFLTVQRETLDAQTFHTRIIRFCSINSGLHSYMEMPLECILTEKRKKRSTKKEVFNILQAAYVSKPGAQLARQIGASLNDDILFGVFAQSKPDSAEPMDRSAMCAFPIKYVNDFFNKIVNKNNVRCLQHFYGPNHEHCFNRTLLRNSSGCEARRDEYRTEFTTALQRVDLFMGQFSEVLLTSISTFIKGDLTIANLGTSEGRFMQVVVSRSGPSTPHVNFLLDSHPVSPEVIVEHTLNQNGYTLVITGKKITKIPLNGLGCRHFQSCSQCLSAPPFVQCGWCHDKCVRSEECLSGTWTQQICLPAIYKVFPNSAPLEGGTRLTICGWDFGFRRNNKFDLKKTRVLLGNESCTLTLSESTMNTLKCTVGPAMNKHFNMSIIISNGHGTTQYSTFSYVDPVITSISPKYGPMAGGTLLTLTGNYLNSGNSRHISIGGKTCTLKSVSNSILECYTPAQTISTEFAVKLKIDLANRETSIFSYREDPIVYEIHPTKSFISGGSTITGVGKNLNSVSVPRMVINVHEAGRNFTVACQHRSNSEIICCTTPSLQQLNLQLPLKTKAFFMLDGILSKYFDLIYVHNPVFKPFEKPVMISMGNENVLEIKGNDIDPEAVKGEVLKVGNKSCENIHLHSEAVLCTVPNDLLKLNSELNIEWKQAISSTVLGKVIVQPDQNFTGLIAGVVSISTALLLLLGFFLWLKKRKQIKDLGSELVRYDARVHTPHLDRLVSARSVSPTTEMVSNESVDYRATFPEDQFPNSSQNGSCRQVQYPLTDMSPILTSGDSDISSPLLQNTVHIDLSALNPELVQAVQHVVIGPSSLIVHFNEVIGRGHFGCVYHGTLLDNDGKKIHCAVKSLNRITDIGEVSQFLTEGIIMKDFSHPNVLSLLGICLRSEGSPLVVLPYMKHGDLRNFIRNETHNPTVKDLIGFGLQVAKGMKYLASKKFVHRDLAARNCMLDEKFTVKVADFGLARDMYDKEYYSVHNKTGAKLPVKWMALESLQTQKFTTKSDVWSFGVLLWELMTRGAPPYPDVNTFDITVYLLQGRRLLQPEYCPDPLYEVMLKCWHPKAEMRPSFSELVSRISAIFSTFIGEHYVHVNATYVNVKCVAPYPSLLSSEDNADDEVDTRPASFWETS

- IC50 [1]: 7.1 nM
- IC50 [2]: 22900 nM
- IC50 [3]: 8.2 nM
- half-life [4]: 20.6 h
- Tmax [5]: 8.7 h
- Cmax [6]: 7800 ng/mL
- AUC(0-inf) [7]: 80600 ng·h/mL
- CL/F [8]: 0.333 mL/min/kg
- MRT [9]: 10.8 h
- inhibition [10]: > 80%
- inhibition [11]: > 80%
- inhibition [12]: 50 to 79%
- inhibition [13]: < 50%
- inhibition [14]: < 50%
- inhibition [15]: < 50%
- inhibition [16]: < 50%
- inhibition [17]: < 50%
- inhibition [18]: < 50%
- inhibition [19]: < 50%
- inhibition [20]: < 50%
- inhibition [21]: < 50%
- inhibition [22]: < 50%
- inhibition [23]: < 50%
- inhibition [24]: < 50%
Structure (SMILES): Cn1cc(-c2ccc(F)cc2)c(=O)c2c(Nc3ccc(Oc4ccnc(NC(=O)C5CC5)c4)c(F)c3)nccc21
